PubChem BioAssay AID2060618 (Molecular Pharmacology Branch, DTP, NCI, 2025)

Tested on: 454973-116-R2-J3-PDC spheroids, percent test/control viability
Assay: Anticancer human tumor 454973-116-R2-J3-PDC patient-derived pancreatic carcinoma cell line growth inhibition [CLK]
Details: spheroids with HUVEC and MSC; for IC50: curve of first compound; for viability, T/C: stronger effect = lower value
Method in brief: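 Patient-derived tumor cells grown as complex spheroids with HUVEC endothelial cells and mesenchymal stem cells, treated with drug combinations. Concentrations descend in half-log steps from near clinical Cmax, or from 10 microM if Cmax unknown.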

[1] = second compound 0.0316 µM, first compound 0.0316 µM
[2] = second compound 0.0316 µM, first compound 0.1 µM
[3] = second compound 0.0316 µM, first compound 0.316 µM
[4] = second compound 0.0316 µM, first compound 1 µM
[5] = second compound 0.1 µM, first compound 0.0316 µM
[6] = second compound 0.1 µM, first compound 0.1 µM
[7] = second compound 0.1 µM, first compound 0.316 µM
[8] = second compound 0.1 µM, first compound 1 µM
[9] = second compound 0.316 µM, first compound 0.0316 µM
[10] = second compound 0.316 µM, first compound 0.1 µM
[11] = second compound 0.316 µM, first compound 0.316 µM
[12] = second compound 0.316 µM, first compound 1 µM
[13] = second compound 1 µM, first compound 0.0316 µM
[14] = second compound 1 µM, first compound 0.1 µM
[15] = second compound 1 µM, first compound 0.316 µM
[16] = second compound 1 µM, first compound 1 µM
[17] = second compound 3.16 µM, first compound 0.0316 µM
[18] = second compound 3.16 µM, first compound 0.1 µM
[19] = second compound 3.16 µM, first compound 0.316 µM
[20] = second compound 3.16 µM, first compound 1 µM
[21] = second compound 10 µM, first compound 0.0316 µM
[22] = second compound 10 µM, first compound 0.1 µM
[23] = second compound 10 µM, first compound 0.316 µM
[24] = second compound 10 µM, first compound 1 µM
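Note: spheroids exposed to compounds for 7 days before readout.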

CC(Nc1ccc2c(c1)OCCn1cc(N3C(=O)OCC3C(F)F)nc1-2)C(N)=O (centres undefined) + CN1CCN(c2cc(C(=O)Nc3cc4cc(-c5cnn(C)c5)ccc4cn3)ccn2)CC1
IC50 (second compound 0.0316 µM): > 10000 nM
IC50 (second compound 0.1 µM): 332 nM
IC50 (second compound 0.316 µM): < 31.6 nM
IC50 (second compound 1 µM): < 31.6 nM
IC50 (second compound 3.16 µM): < 31.6 nM
IC50 (second compound 10 µM): < 31.6 nM
viability, T/C [1]: 91.9%
viability, T/C [2]: 82.3%
viability, T/C [3]: 81.4%
viability, T/C [4]: 68.3%
viability, T/C (second compound 0.0316 µM, first compound 3.16 µM): 64.8%
viability, T/C (second compound 0.0316 µM, first compound 10 µM): 53.1%
viability, T/C [5]: 67.4%
viability, T/C [6]: 60.2%
viability, T/C [7]: 49.9%
viability, T/C [8]: 41.8%
viability, T/C (second compound 0.1 µM, first compound 3.16 µM): 34%
viability, T/C (second compound 0.1 µM, first compound 10 µM): 30.2%
viability, T/C [9]: 1.28%
viability, T/C [10]: 1.34%
viability, T/C [11]: 0.74%
viability, T/C [12]: 0.59%
viability, T/C (second compound 0.316 µM, first compound 3.16 µM): 1.78%
viability, T/C (second compound 0.316 µM, first compound 10 µM): 0.43%
viability, T/C [13]: 0.08%
viability, T/C [14]: 0.11%
viability, T/C [15]: 3.02%
viability, T/C [16]: 0.1%
viability, T/C (second compound 1 µM, first compound 3.16 µM): 0.88%
viability, T/C (second compound 1 µM, first compound 10 µM): 0.07%
viability, T/C [17]: 0.11%
viability, T/C [18]: 0.14%
viability, T/C [19]: 0.15%
viability, T/C [20]: 0.13%
viability, T/C (second compound 3.16 µM, first compound 3.16 µM): 0.13%
viability, T/C (second compound 3.16 µM, first compound 10 µM): 0.38%
viability, T/C [21]: 3.01%
viability, T/C [22]: 0.2%
viability, T/C [23]: 0.2%
viability, T/C [24]: 0.22%
viability, T/C (second compound 10 µM, first compound 3.16 µM): 0.21%
viability, T/C (second compound 10 µM, first compound 10 µM): 0.23%

CCN1CCN(Cc2ccc(Nc3ncc(F)c(-c4cc(F)c5nc(C)n(C(C)C)c5c4)n3)nc2)CC1 + CN1CCN(c2cc(C(=O)Nc3cc4cc(-c5cnn(C)c5)ccc4cn3)ccn2)CC1
IC50 (second compound 0.0316 µM): > 1000 nM
IC50 (second compound 0.1 µM): > 1000 nM
IC50 (second compound 0.316 µM): < 3.16 nM
IC50 (second compound 1 µM): < 3.16 nM
IC50 (second compound 3.16 µM): < 3.16 nM
IC50 (second compound 10 µM): < 3.16 nM
viability, T/C (second compound 0.0316 µM, first compound 0.00316 µM): 90.9%
viability, T/C (second compound 0.0316 µM, first compound 0.01 µM): 93.5%
viability, T/C [1]: 78.7%
viability, T/C [2]: 79.1%
viability, T/C [3]: 71%
viability, T/C [4]: 62.2%
viability, T/C (second compound 0.1 µM, first compound 0.00316 µM): 77.8%
viability, T/C (second compound 0.1 µM, first compound 0.01 µM): 78.5%
viability, T/C [5]: 70.6%
viability, T/C [6]: 81.2%
viability, T/C [7]: 63.5%
viability, T/C [8]: 66.9%
viability, T/C (second compound 0.316 µM, first compound 0.00316 µM): 2.22%
viability, T/C (second compound 0.316 µM, first compound 0.01 µM): 3.67%
viability, T/C [9]: 6.55%
viability, T/C [10]: 7.25%
viability, T/C [11]: 24.6%
viability, T/C [12]: 13.8%
viability, T/C (second compound 1 µM, first compound 0.00316 µM): 0.14%
viability, T/C (second compound 1 µM, first compound 0.01 µM): 1.49%
viability, T/C [13]: 2.77%
viability, T/C [14]: 0.19%
viability, T/C [15]: 0.21%
viability, T/C [16]: 0.24%
viability, T/C (second compound 3.16 µM, first compound 0.00316 µM): 0.15%
viability, T/C (second compound 3.16 µM, first compound 0.01 µM): 0.31%
viability, T/C [17]: 0.58%
viability, T/C [18]: 0.16%
viability, T/C [19]: 0.2%
viability, T/C [20]: 0.28%
viability, T/C (second compound 10 µM, first compound 0.00316 µM): 0.13%
viability, T/C (second compound 10 µM, first compound 0.01 µM): 0.22%
viability, T/C [21]: 0.24%
viability, T/C [22]: 0.42%
viability, T/C [23]: 0.21%
viability, T/C [24]: 3.78%
